From patent US20070185014A1, “Methods and compositions for modulating conjunctival goblet cells” (The Schepens Eye Research Institute, Inc., priority 2006, published 2007)

Legend:
[1] = tested on: rat conjunctival goblet cells; assay: Goblet cell proliferation, WST tetrazolium assay (Example 3A, Fluorescence Assay); format: cell-based; details: for stimulation of goblet cell proliferation compared to control (no additions): 10^−7 M; for goblet cell proliferation, Ave. fold / goblet cell proliferation, fold of basal, rat101 / goblet cell proliferation, fold of basal, rat102 / goblet cell proliferation, fold of basal, rat103: 24 hrs; for goblet cell proliferation, Ave. fold: average of 3 rats; for goblet cell proliferation, fold of basal, rat101: cells from rat101; for goblet cell proliferation, fold of basal, rat102: cells from rat102; for goblet cell proliferation, fold of basal, rat103: cells from rat103
Excerpt: Conjunctival tissue from the fomical area and the nictitating membranes were removed from male Sprague Dawley rats. Tissue pieces were placed in explant culture in RPMI supplemented with fetal bovine serum (FBS). […] Non-goblet cells, predominantly fibroblasts, were removed by scraping. Goblet cells were allowed to grow and proliferate for several days. Cells were removed from the tissue culture vessel by trypsin treatment. The number of cells was counted using a coulter counter. For measurement of proliferation 200 cells were seeded onto 96 well plates. Cells were allowed to attach and proliferate until a sparsely confluent level was obtained, about two days.
Goblet cells from passage 1 or 2 cultured as above were used for measurement of proliferation. Cells were plated at 200 cells/well. Cells were serum-starved for 24 or 48 hrs. Test compounds in varying concentrations were added to each cell well for 24 hrs. The positive control for proliferation was the addition of 10% FBS, a known maximal stimulator of proliferation. Proliferation was terminated by the removal of medium.

[2] = tested on: rat conjunctival goblet cells; assay: Goblet cell proliferation, Ki-67/UEA-1/DAPi immunofluorescence assay (Example 3B); format: cell-based; details: 24 hours; concentration most effective in the fluorescence assay (FBS 10%)
Excerpt: Conjunctival tissue from the fomical area and the nictitating membranes were removed from male Sprague Dawley rats. Tissue pieces were placed in explant culture in RPMI supplemented with fetal bovine serum (FBS). Over several days cells grew out of the explant and proliferated. Non-goblet cells, predominantly fibroblasts, were removed by scraping. Goblet cells were allowed to grow and proliferate for several days. Cells were removed from the tissue culture vessel by trypsin treatment. The number of cells was counted using a coulter counter. For measurement of proliferation 200 cells were seeded onto 96 well plates. […]
B. Immunofluorescence Assay This assay was used to confirm the results from the fluorescence assay. […]
Ki-67 was detected with a rhodamine secondary antibody using a filter that measures excitation wavelengths from 530-560 nm. UEA-1, which stains goblet cells, was directly conjugated to fluorescein isothyocyanate (FITC) and was detected using a filter that measures excitation wavelengths from 450-490 nm. DAPi, which stains the nuclei of all cells, was detected using a filter that measures excitation wavelengths from 400-418 nm. The percentage of proliferating goblet cells is determined by dividing the number of Ki-67 positive goblet cells by the total number of cells and multiplying by 100. […]

CC(C)NCC(O)c1ccc(O)c(O)c1 (stereo not shown) [Isoproterenol, reference compound]
effect on goblet cell proliferation ([1]; 10^−7 to 10^−3 M, likely due to interference with the assay): did not increase proliferation

CCCC(=O)Nc1ncnc2c1ncn2[C@@H]1O[C@@H]2COP(=O)(O)O[C@H]2[C@H]1OC(=O)CCC [butyryl cAMP, dibutyryl cAMP, reference compound]
effect on goblet cell proliferation ([1]; 10^−6 to 10^−3 M): did not increase proliferation at the concentrations tested

CCCC(=O)O[C@@H]1[C@@H](C)[C@@]2(O)[C@@H](C=C(CO)C[C@]3(O)C(=O)C(C)=C[C@@H]23)[C@@H]2C(C)(C)[C@]12OC(=O)CCC [phorbol dibutyrate β isoform, phorbol dibutyrate, reference compound]
effect on goblet cell proliferation ([1]; concentrations not greater than 10^−7 M, solubilized in DMSO): Neither isoform increased proliferation except at high concentrations
effect on goblet cell proliferation ([1]; high concentrations, greater than 10^−7 M, effect not mediated by PKC): both isoforms increased proliferation

PDGF
increase in goblet cell proliferation compared to no additions ([1]; 5 to 25 ng/ml): 2 fold

C[N+](C)(C)CCOC(N)=O [Carbachol, reference compound]
effect on goblet cell proliferation ([1]; 10^−6 to 10^−3 M): did not increase cell proliferation at any concentration

Heregulin
stimulation of goblet cell proliferation compared to control (no additions) [1]: more than 2 fold

HGF: hepatocyte growth factor
effect on goblet cell proliferation ([1]; 15-40 ng/ml): Neither hepatocyte growth factor (HGF, 15-40 ng/ml) nor keratinocyte growth factor (KGF, 10-30 ng/ml), at any of the concentrations used, stimulated cell proliferation

EGF: epidermal growth factor, activates ErbB-1 receptors
stimulation of goblet cell proliferation compared to control (no additions) [1]: about two
proliferation (Ki-67 positive goblet cells as percentage of total cells) [2]: 40%

transforming growth factor (TGF)α: EGF family growth factor that activates ErbB-1 receptors
stimulation of goblet cell proliferation compared to control (no additions) [1]: about two

CCCCCCCCCCCCCC(=O)O[C@@H]1[C@@H](C)[C@@]2(O)[C@@H](C=C(CO)C[C@]3(O)C(=O)C(C)=C[C@@H]23)[C@@H]2C(C)(C)[C@]12OC(C)=O [PMA, Phorbol myristic acid, reference compound]
effect on goblet cell proliferation ([1]; 10^−8M, solubilized in less than 1% DMSO, compared to no additions): did not stimulate cell proliferation

Galectin-1: recombinant galectin, mono-CRD carbohydrate-binding protein, obtained from Cell Services, Massachusetts, 98% pure
dose dependence of effect on goblet cell proliferation ([1]; 0.1 μg/ml to 5 μg/ml): appeared to be dose dependent
effect on goblet cell proliferation ([1]; 0.1 μg/ml to 5 μg/ml): both galectins stimulated goblet cell proliferation
goblet cell proliferation, Ave. fold ([1]; 0.1 ug/ml): 1.0 fold
goblet cell proliferation, fold of basal, rat101 ([1]; 0.1 ug/ml): 1.1 fold
goblet cell proliferation, fold of basal, rat102 ([1]; 0.1 ug/ml): 1.0 fold
goblet cell proliferation, fold of basal, rat103 ([1]; 0.1 ug/ml): 1.0 fold
goblet cell proliferation, Ave. fold ([1]; 0.5 ug/ml): 1.0 fold
goblet cell proliferation, fold of basal, rat101 ([1]; 0.5 ug/ml): 1.1 fold
goblet cell proliferation, fold of basal, rat102 ([1]; 0.5 ug/ml): 1.0 fold
goblet cell proliferation, fold of basal, rat103 ([1]; 0.5 ug/ml): 1.0 fold
goblet cell proliferation, Ave. fold ([1]; 1.0 ug/ml): 1.0 fold
goblet cell proliferation, fold of basal, rat101 ([1]; 1.0 ug/ml): 1.1 fold
goblet cell proliferation, fold of basal, rat102 ([1]; 1.0 ug/ml): 1.0 fold
goblet cell proliferation, fold of basal, rat103 ([1]; 1.0 ug/ml): 1.0 fold
goblet cell proliferation, Ave. fold ([1]; 2.0 ug/ml): 1.2 fold
goblet cell proliferation, fold of basal, rat101 ([1]; 2.0 ug/ml): 1.5 fold
goblet cell proliferation, fold of basal, rat102 ([1]; 2.0 ug/ml): 1.2 fold
goblet cell proliferation, fold of basal, rat103 ([1]; 2.0 ug/ml): 1.1 fold
goblet cell proliferation, Ave. fold ([1]; 5.0 ug/ml): 1.3 fold
goblet cell proliferation, fold of basal, rat101 ([1]; 5.0 ug/ml): 1.4 fold
goblet cell proliferation, fold of basal, rat102 ([1]; 5.0 ug/ml): 1.4 fold
goblet cell proliferation, fold of basal, rat103 ([1]; 5.0 ug/ml): 1.2 fold

CC(C)Cn1c(=O)c2[nH]cnc2n(C)c1=O [1-isobutyl-3methylxanthine, reference compound]
effect on goblet cell proliferation ([1]; 10^−6 to 10^−3 M): did not increase proliferation at the concentrations tested

bFGF: Basic fibroblast growth factor, also referred to as FGF-2
effect on goblet cell proliferation ([1]; 10-20 ng/ml, similar to PDGF (2-fold)): had similar effects
proliferation (Ki-67 positive goblet cells as percentage of total cells) [2]: 70%

Galectin-3: recombinant galectin with single CRD domain and extended N-terminal region, obtained from Cell Services, Massachusetts, 98% pure
dose dependence of effect on goblet cell proliferation ([1]; 0.1 μg/ml to 5 μg/ml): appeared to be dose dependent
effect on goblet cell proliferation ([1]; 0.1 μg/ml to 5 μg/ml): both galectins stimulated goblet cell proliferation
goblet cell proliferation, Ave. fold ([1]; 0.1 ug/ml): 1.0 fold
goblet cell proliferation, fold of basal, rat101 ([1]; 0.1 ug/ml): 1.0 fold
goblet cell proliferation, fold of basal, rat102 ([1]; 0.1 ug/ml): 0.9 fold
goblet cell proliferation, fold of basal, rat103 ([1]; 0.1 ug/ml): 1.0 fold
goblet cell proliferation, Ave. fold ([1]; 0.5 ug/ml): 1.1 fold
goblet cell proliferation, fold of basal, rat101 ([1]; 0.5 ug/ml): 1.3 fold
goblet cell proliferation, fold of basal, rat102 ([1]; 0.5 ug/ml): 1.0 fold
goblet cell proliferation, fold of basal, rat103 ([1]; 0.5 ug/ml): 1.0 fold
goblet cell proliferation, Ave. fold ([1]; 1.0 ug/ml): 1.2 fold
goblet cell proliferation, fold of basal, rat101 ([1]; 1.0 ug/ml): 1.3 fold
goblet cell proliferation, fold of basal, rat102 ([1]; 1.0 ug/ml): 1.1 fold
goblet cell proliferation, fold of basal, rat103 ([1]; 1.0 ug/ml): 1.0 fold
goblet cell proliferation, Ave. fold ([1]; 2.0 ug/ml): 1.3 fold
goblet cell proliferation, fold of basal, rat101 ([1]; 2.0 ug/ml): 1.5 fold
goblet cell proliferation, fold of basal, rat102 ([1]; 2.0 ug/ml): 1.3 fold
goblet cell proliferation, fold of basal, rat103 ([1]; 2.0 ug/ml): 1.1 fold
goblet cell proliferation, Ave. fold ([1]; 5.0 ug/ml): 1.4 fold
goblet cell proliferation, fold of basal, rat101 ([1]; 5.0 ug/ml): 1.8 fold
goblet cell proliferation, fold of basal, rat102 ([1]; 5.0 ug/ml): 1.2 fold
goblet cell proliferation, fold of basal, rat103 ([1]; 5.0 ug/ml): 1.1 fold

B1: KGF: keratinocyte growth factor (protein, UniProt P21781 32-194, looked up)
Fibroblast growth factor 7: CNDMTPEQMATNVNCSSPERHTRSYDYMEGGDIRVRRLFCRTQWYLRIDKRGKVKGTQEMKNNYNIMEIRTVAVGIVAIKGVESEFYLAMNKEGKLYAKKECNEDCNFKELILENHYNTYASAKWTHNGGEMFVALNQKGIPVRGKKTKKEQKTAHFLPMAIT
effect on goblet cell proliferation ([1]; 10-30 ng/ml): Neither hepatocyte growth factor (HGF, 15-40 ng/ml) nor keratinocyte growth factor (KGF, 10-30 ng/ml), at any of the concentrations used, stimulated cell proliferation

B2: HB-EGF: Heparin binding-EGF, binds to ErbB-1 and ErbB-3 receptors (protein, UniProt Q99075 63-148, looked up)
Heparin-binding EGF-like …: DLQEADLDLLRVTLSSKPQALATPNKEEHGKRKKKGKGLGKKRDPCLRKYKDFCIHGECKYVKELRAPSCICHPGYHGERCHGLSL
stimulation of goblet cell proliferation compared to control (no additions) [1]: 2 fold
